Source: PMC11224403, “Des-acyl ghrelin reduces alcohol intake and alcohol-induced reward in rodents” (Translational Psychiatry, 2024)

What was measured:
µ-opioid receptor = type: cell-based, human; details: 50 µM DAG in results (8.3 µM in methods); luminescence, triplicates
NET = test: Transporter inhibition in recombinant cell line, NET; type: cell-based, human; details: 8.3 µM DAG; recombinant cells, 3 h incubation, fluorescence dye
male and female rats = test: Intermittent-access alcohol drinking, repeated DAG injections; type: in vivo, Rcc Han Wistar rats; details: for 4-h alcohol intake, overall / 24-h alcohol intake, overall: repeated DAG 1 mg/kg IP at three drinking sessions
Excerpt: Male and female Rcc Han Wistar rats (8–12 weeks old at arrival; Envigo, Horst, Netherlands) were used for the alcohol drinking and locomotor activity experiments as they drink alcohol to intoxicating levels. For in vivo microdialysis studies male Wistar rats (Charles River, Calco, Italy) were used as they display robust dopamine levels in NAc shell after alcohol injection. […] All rodents were allowed to habituate to the animal facility at least one week before they entered an experiment. During housing (20 °C with 50% humidity) the rodents had free access to water and standard chow (Teklad Rodent Diet; Envigo, Madison, WI, USA). These experiments were approved by the Ethics Committee for Animal Experiments (ethical numbers: 1457/18, 3276/18, 1556/18, 3348/20; Gothenburg, Sweden) and followed the ARRIVE guidelines. The sample sizes of each experiment were based on previous experience in which statistical significance has been detected. The person who conducted the experiments, and analyzed the collected data was aware of the treatment allocation. Only preset exclusion criteria were used when analyzing the data obtained in attempts to exclude confounding factors in analyzing data. In the alcohol drinking experiments leaking bottles and low alcohol consumption (<3.0 g/kg for males; <3.5 g/kg for females) were preset exclusion criteria. The preset exclusion criterion in the ex vivo HPLC-EC, ELISA, and recombinant cell line experiments was contamination of the sample. Misplaced probes, technical difficulties, and damages to the surgery area were preset exclusion criteria for the in vivo microdialysis experiment. Intra-cage male aggression was the preset exclusion criterion for the locomotor activity and CPP experiments. To minimize tentative confounding factors, the order of treatments was stratified, with treatments being mixed for each animal cage and for each apparatus used as well as balancing the alcohol intake between future treatment groups. Although each experiment only was performed once, they were separated over different laboratory days with equal data obtained between sessions.
Alcohol (95%; Solveco AB, Stockholm, Sweden) was either diluted to a 20% solution using tap water (drinking experiment) or to a 15% (w/v) solution with 0.9% NaCl. Alcohol was in the behavioral and neurochemical tests injected (intraperitoneally, IP) 5 min before the test. A dose of 1.75 g/kg was used in male mice as it causes robust locomotor stimulation and induces a CPP [37–39], and 2 g/kg was used for rats as it elevates the dopamine levels in NAc shell. DAG (Tocrise Bioscience, Bristol, UK) was dissolved in 0.9% NaCl in doses (0.25–2 mg/kg) known to reduce food intake and DAG was injected IP).
Individually housed rats had intermittent access to an alcohol (20%) bottle and a water bottle, three 24-h sessions per week, and only water bottles the remaining days. A reversed light/dark cycle was used, and the bottles were changed when the lights went out. First, the rats consumed alcohol for 10 weeks (baseline drinking), where the bottles and food were weighed daily and the body weight weekly. During treatments, the bottles and food were weighed at 4- and/or 24-h and the body weight was measured daily. In the first drinking experiment, the potential of DAG to reduce alcohol consumption was tested and therefore, vehicle or DAG (1 mg/kg) was acutely injected into male (n = 12) or female (n = 12) rats. The second drinking experiment was conducted to establish the effects of lower DAG doses on alcohol intake. Therefore, separate male (n = 18) or female (n = 18) rats, were acutely injected with lower DAG doses (0.5 or 0.25 mg/kg) or vehicle. The third alcohol drinking experiment evaluated the ability of repeated DAG injections to lower alcohol drinking. Therefore, additional male (n = 24) and female (n = 24) rats were injected with either vehicle or DAG (1 mg/kg) at three alcohol-drinking sessions. […]

[1] = cited from earlier work
Excerpt: Although DAG altered the neurotransmission of the VTA, the neuronal activi ... || Although DAG reduced alcohol consumption in rats of both sexes, some sex differences were evident. Specifically, after acute DAG treatment the decline in alcohol consumption was evident at the 24-h time point for males and the 4-h time point for females. Moreover, after repeated DAG treatment the decline was similar at each treatment session for males whereas it escalates over time in females.

cFOS in NAc and VTA = test: cFOS-positive cells in NAc and VTA; type: in vivo, male rats; details: acute DAG, 90 min
Experimental: We therefore explore if DAG influenced the activity of neurons (cFOS) in NAc and VTA. Naïve male rats were treated acutely with vehicle (n = 3) or DAG (n = 3) and were 90 min later perfused. Brains were collected, and stored in 4% paraformaldehyde overnight, and in 25% sucrose until sectioning. Brains were sectioned coronally in 40-μm sections using a microtome. Brain slices of NAc (AP +1.8 mm) and VTA (AP −5.2 mm) were stained for cFOS-DAB, as described elsewhere, visualized by a Nikon light microscope (Nikon Eclipse 90i, Tokyo, Japan). Pictures were captured with a Nikon DS-Fi1 camera (Nikon, Tokyo, Japan). Cell bodies positive for cFOS immunoreactivity (dark brown) were quantified using ImageJ-FIJI (National Institutes of Health, Bethesda, MD), and counted manually by a blinded experimenter.
The obtained data are normally distributed and with equal variance. The data from drinking experiments were analyzed by unpaired t-test or repeated two-way ANOVA. A two-tailed unpaired t-test analyzed the ELISA, ex vivo HPLC-EC, and cFOS data. […] A one-way ANOVA with Bonferroni post hoc tests and unpaired t-test analyzed the locomotor activity and CPP data, respectively. The in vivo microdialysis experiments were evaluated by a repeated two-way ANOVA followed by the Bonferroni post hoc test. […] Data were analyzed with GraphPad Prism version 10.0.2 (GraphPad Software, La Jolla, CA, USA).

SERT = test: Transporter inhibition in recombinant cell line, SERT; type: cell-based, human; details: 8.3 µM DAG; recombinant cells, 3 h incubation, fluorescence dye
[2] = female rats, repeated DAG 1 mg/kg IP
[3] = female rats, n = 7 vs vehicle n = 9
[4] = female rats, repeated DAG 1 mg/kg IP, drinking session 2, n = 7 vs vehicle n = 9
[5] = female rats, repeated DAG 1 mg/kg IP, n = 7 vs vehicle n = 9
[6] = male rats, repeated DAG 1 mg/kg IP
[7] = male rats, n = 8 vs vehicle n = 8

## des-acyl ghrelin (GSSFLSPEHQRVQQRKESKKPPAKLQPR; Ghrelin-28 non-acylated; UniProt Q9UBU3 24-51, looked up) [DAG, non-octanoylated form of ghrelin; purchased from Tocris (printed Tocrise Bioscience), dissolved in 0.9% NaCl]
µ-opioid receptor
  activation of µ-opioid receptor: no activation
NET
  inhibition of NET: no inhibition
Male and female rats; [2]
  alcohol preference: remained unaltered by repeated injections of DAG
  body weight: not affected by repeated DAG treatment
  total fluid intake: remained unaltered by repeated injections of DAG
  water intake: remained unaltered by repeated injections of DAG
Male and female rats; [3]
  4-h alcohol intake, overall: overall reduced the alcohol consumption at the 4-h time point (treatment F1,14 = 9.17, P = 0.0090 **; time F2,28 = 12.63, P = 0.0001; interaction F2,28 = 1.02, P = 0.3754)
  24-h alcohol intake, overall: An overall decline in 24-h alcohol intake was observed (treatment F1,14 = 14.72, P = 0.0018 **; time F2,28 = 2.91, P = 0.0711; interaction F2,28 = 6.43, P = 0.0051 ##)
Male and female rats; [4]
  4-h alcohol intake, session 2: a decrease specifically evident at alcohol drinking session 2 (P = 0.0158)
  4-h food intake, session 2: The lowered food intake by DAG was found at alcohol drinking session 2 (P = 0.0475)
Male and female rats; [5]
  4-h food intake, overall: A lowered food intake by repeated DAG injections was observed at the 4-h (treatment F1,14 = 4.80, P = 0.0460 *; time F2,28 = 4.79, P < 0.0001; interaction F2,28 = 0.57, P = 0.5742)
  24-h food intake: not at the 24-h time point (treatment F1,14 = 0.53, P = 0.4798; time F2,28 = 1.68, P = 0.2049; interaction F2,28 = 0.19, P = 0.8269)
Male and female rats; [6]
  body weight: unchanged after repeated DAG injections
  preference for alcohol: unchanged after repeated DAG injections
  water intake: unchanged after repeated DAG injections
Male and female rats; [7]
  4-h alcohol intake, overall: overall decrease in alcohol intake at the A 4-h time point (treatment F1,14 = 5.12, P = 0.0401 *; time F2,28 = 1.87, P = 0.1754; interaction F2,28 = 0.59, P = 0.5622)
  24-h alcohol intake, overall: An overall reduction in alcohol intake was observed after DAG injections (treatment F1,14 = 1.96, P = 0.1836; time F2,28 = 3.44, P = 0.0460; interaction F2,28 = 4.34, P = 0.0228 #)
Male and female rats; male rats, repeated DAG 1 mg/kg IP, 24 h
  total fluid intake, 24-h: overall decline in the total fluid intake at the 24-h time point (P = 0.0304)
Male and female rats; male rats, repeated DAG 1 mg/kg IP, drinking session 2, n = 8 per group
  24-h alcohol intake, session 2: specifically at alcohol drinking session 2 (P = 0.0324)
Male and female rats; male rats, repeated DAG 1 mg/kg IP, drinking session 3, n = 8 per group
  4-h alcohol intake, session 3: specifically lower after DAG at alcohol drinking session 3 (P = 0.0256)
Male and female rats; male rats, repeated DAG 1 mg/kg IP, n = 8 per group (4-h statistics)
  4-h food intake: did not alter the food intake at any time point (4-h: treatment F1,14 = 1.41, P = 0.2546; time F2,28 = 6.86, P = 0.0045; interaction F2,28 = 0.05, P = 0.9518
Male and female rats; male rats, repeated DAG 1 mg/kg IP, n = 8 per group (24-h statistics)
  24-h food intake: 24-h: treatment F1,14 = 0.55, P = 0.4727; time F2,28 = 13.79, P < 0.0001; interaction F2,28 = 1.03, P = 0.3707
[1]; ref [63], [64]
  elimination pathway: renal clearance has been suggested to be a major pathway for the elimination of DAG
[1]; systemic DAG, ref [52]
  brain entry: enters the brain through non-saturable transmembrane diffusion
cFOS in NAc and VTA; male rats, data not shown
  cFOS-positive cells, VTA: Neither did DAG treatment influence cFOS-positive cells in the VTA
cFOS in NAc and VTA; naïve male rats, n = 3 per group, vehicle 237 ± 13, t4 = 0.60, P = 0.6372
  number of cFOS-positive cells, NAc shell: 219 ± 33
SERT
  inhibition of SERT: no inhibition
